{"source": "ChEMBL document CHEMBL3045327", "about": "“Synthesis, cytotoxic evaluation, and in silico studies of substituted N-alkylbromo-benzothiazoles” (Med Chem Res, 2013)", "assay_type_in_all_cases": "functional, cell-based", "key": {"THP-1": {"tested_on": "THP-1", "experiment": "Cytotoxicity against Homo sapiens (human) THP1 cells after 48 hr by SRB assay", "settings": "for IC50: THP-1, 48 h"}, "Caco-2": {"tested_on": "Caco-2", "experiment": "Cytotoxicity against Homo sapiens (human) Caco2 cells after 48 hr by SRB assay", "settings": "Caco-2, 48 h"}, "A549": {"tested_on": "A549", "experiment": "Cytotoxicity against Homo sapiens (human) A549 cells after 48 hr by SRB assay", "settings": "for IC50: A549, 48 h"}, "PC-3": {"tested_on": "PC-3", "experiment": "Cytotoxicity against Homo sapiens (human) PC3 cells after 48 hr by SRB assay", "settings": "for IC50: PC-3, 48 h"}}}
{"smiles": "Clc1cc2nc(NCCCBr)sc2cc1Cl", "values": [{"measurement": "Activity", "setting": "THP-1", "result": "Dose-dependent effect"}, {"measurement": "IC50", "setting": "THP-1", "result": 7, "unit": "µM"}, {"measurement": "IC50", "setting": "Caco-2", "result": 63, "unit": "µM"}, {"measurement": "Activity", "setting": "A549", "result": "Dose-dependent effect"}, {"measurement": "IC50", "setting": "A549", "result": "> 100", "unit": "µM"}, {"measurement": "Activity", "setting": "PC-3", "result": "Dose-dependent effect"}, {"measurement": "IC50", "setting": "PC-3", "result": 28, "unit": "µM"}]}
{"smiles": "COc1ccc2nc(NCCBr)sc2c1", "values": [{"measurement": "Activity", "setting": "THP-1", "result": "Dose-dependent effect"}, {"measurement": "IC50", "setting": "THP-1", "result": 110, "unit": "µM"}, {"measurement": "IC50", "setting": "Caco-2", "result": 47.9, "unit": "µM"}, {"measurement": "Activity", "setting": "A549", "result": "Dose-dependent effect"}, {"measurement": "IC50", "setting": "A549", "result": "> 100", "unit": "µM"}, {"measurement": "Activity", "setting": "PC-3", "result": "Dose-dependent effect"}, {"measurement": "IC50", "setting": "PC-3", "result": 100, "unit": "µM"}]}
{"smiles": "Cc1ccc2nc(NCCBr)sc2c1", "values": [{"measurement": "Activity", "setting": "THP-1", "result": "Dose-dependent effect"}, {"measurement": "IC50", "setting": "THP-1", "result": 39.9, "unit": "µM"}, {"measurement": "IC50", "setting": "Caco-2", "result": 67.7, "unit": "µM"}, {"measurement": "Activity", "setting": "A549", "result": "Dose-dependent effect"}, {"measurement": "IC50", "setting": "A549", "result": "> 100", "unit": "µM"}, {"measurement": "Activity", "setting": "PC-3", "result": "Dose-dependent effect"}, {"measurement": "IC50", "setting": "PC-3", "result": 40.9, "unit": "µM"}]}
{"smiles": "Cc1ccc2nc(NCCCBr)sc2c1", "values": [{"measurement": "Activity", "setting": "THP-1", "result": "Dose-dependent effect"}, {"measurement": "IC50", "setting": "THP-1", "result": 30.3, "unit": "µM"}, {"measurement": "IC50", "setting": "Caco-2", "result": 81.6, "unit": "µM"}, {"measurement": "Activity", "setting": "A549", "result": "Dose-dependent effect"}, {"measurement": "IC50", "setting": "A549", "result": "> 100", "unit": "µM"}, {"measurement": "Activity", "setting": "PC-3", "result": "Dose-dependent effect"}, {"measurement": "IC50", "setting": "PC-3", "result": 53.3, "unit": "µM"}]}
{"smiles": "O=c1[nH]cc(F)c(=O)[nH]1", "note": "[FLUOROURACIL]", "values": [{"measurement": "Activity", "setting": "THP-1", "result": "Dose-dependent effect"}, {"measurement": "IC50", "setting": "Caco-2", "result": 21, "unit": "µM"}, {"measurement": "Activity", "setting": "A549", "result": "Dose-dependent effect"}, {"measurement": "Activity", "setting": "PC-3", "result": "Dose-dependent effect"}]}
{"smiles": "Clc1cc2nc(NCCBr)sc2cc1Cl", "values": [{"measurement": "Activity", "setting": "THP-1", "result": "Dose-dependent effect"}, {"measurement": "IC50", "setting": "THP-1", "result": 8.46, "unit": "µM"}, {"measurement": "IC50", "setting": "Caco-2", "result": 8.4, "unit": "µM"}, {"measurement": "Activity", "setting": "A549", "result": "Dose-dependent effect"}, {"measurement": "IC50", "setting": "A549", "result": 85.5, "unit": "µM"}, {"measurement": "Activity", "setting": "PC-3", "result": "Dose-dependent effect"}, {"measurement": "IC50", "setting": "PC-3", "result": 24, "unit": "µM"}]}
{"smiles": "Clc1cccc2sc(NCCCBr)nc12", "values": [{"measurement": "Activity", "setting": "THP-1", "result": "Dose-dependent effect"}, {"measurement": "IC50", "setting": "THP-1", "result": 1.72, "unit": "µM"}, {"measurement": "IC50", "setting": "Caco-2", "result": "> 100", "unit": "µM"}, {"measurement": "Activity", "setting": "A549", "result": "Dose-dependent effect"}, {"measurement": "IC50", "setting": "A549", "result": "> 100", "unit": "µM"}, {"measurement": "Activity", "setting": "PC-3", "result": "Dose-dependent effect"}, {"measurement": "IC50", "setting": "PC-3", "result": 3.1, "unit": "µM"}]}
{"smiles": "COc1ccc2nc(NCCCBr)sc2c1", "values": [{"measurement": "Activity", "setting": "THP-1", "result": "Dose-dependent effect"}, {"measurement": "IC50", "setting": "THP-1", "result": 3, "unit": "µM"}, {"measurement": "IC50", "setting": "Caco-2", "result": 9.9, "unit": "µM"}, {"measurement": "Activity", "setting": "A549", "result": "Dose-dependent effect"}, {"measurement": "IC50", "setting": "A549", "result": 89.9, "unit": "µM"}, {"measurement": "Activity", "setting": "PC-3", "result": "Dose-dependent effect"}, {"measurement": "IC50", "setting": "PC-3", "result": 0.6, "unit": "µM"}]}
{"smiles": "Clc1cccc2sc(NCCBr)nc12", "values": [{"measurement": "Activity", "setting": "THP-1", "result": "Dose-dependent effect"}, {"measurement": "IC50", "setting": "THP-1", "result": 110, "unit": "µM"}, {"measurement": "IC50", "setting": "Caco-2", "result": 26.9, "unit": "µM"}, {"measurement": "Activity", "setting": "A549", "result": "Dose-dependent effect"}, {"measurement": "IC50", "setting": "A549", "result": "> 100", "unit": "µM"}, {"measurement": "Activity", "setting": "PC-3", "result": "Dose-dependent effect"}, {"measurement": "IC50", "setting": "PC-3", "result": 110, "unit": "µM"}]}
{"smiles": "Fc1ccc2nc(NCCBr)sc2c1", "values": [{"measurement": "Activity", "setting": "THP-1", "result": "Dose-dependent effect"}, {"measurement": "IC50", "setting": "THP-1", "result": 1, "unit": "µM"}, {"measurement": "IC50", "setting": "Caco-2", "result": 16.8, "unit": "µM"}, {"measurement": "Activity", "setting": "A549", "result": "Dose-dependent effect"}, {"measurement": "IC50", "setting": "A549", "result": 67.6, "unit": "µM"}, {"measurement": "Activity", "setting": "PC-3", "result": "Dose-dependent effect"}, {"measurement": "IC50", "setting": "PC-3", "result": 9.9, "unit": "µM"}]}
{"smiles": "Clc1ccc2nc(NCCBr)sc2c1", "values": [{"measurement": "Activity", "setting": "THP-1", "result": "Dose-dependent effect"}, {"measurement": "IC50", "setting": "THP-1", "result": 97.8, "unit": "µM"}, {"measurement": "IC50", "setting": "Caco-2", "result": "> 100", "unit": "µM"}, {"measurement": "Activity", "setting": "A549", "result": "Dose-dependent effect"}, {"measurement": "IC50", "setting": "A549", "result": "> 100", "unit": "µM"}, {"measurement": "Activity", "setting": "PC-3", "result": "Dose-dependent effect"}, {"measurement": "IC50", "setting": "PC-3", "result": 99, "unit": "µM"}]}
{"smiles": "Fc1ccc2nc(NCCCBr)sc2c1", "values": [{"measurement": "Activity", "setting": "THP-1", "result": "Dose-dependent effect"}, {"measurement": "IC50", "setting": "THP-1", "result": 0.9, "unit": "µM"}, {"measurement": "IC50", "setting": "Caco-2", "result": 93.7, "unit": "µM"}, {"measurement": "Activity", "setting": "A549", "result": "Dose-dependent effect"}, {"measurement": "IC50", "setting": "A549", "result": "> 100", "unit": "µM"}, {"measurement": "Activity", "setting": "PC-3", "result": "Dose-dependent effect"}, {"measurement": "IC50", "setting": "PC-3", "result": 2.5, "unit": "µM"}]}
{"smiles": "CC(=O)O[C@H]1C(=O)[C@@]2(C)[C@H]([C@H](OC(=O)c3ccccc3)[C@]3(O)C[C@H](OC(=O)[C@H](O)[C@@H](NC(=O)c4ccccc4)c4ccccc4)C(C)=C1C3(C)C)[C@]1(OC(C)=O)CO[C@@H]1C[C@@H]2O", "values": [{"measurement": "Activity", "setting": "THP-1", "result": "Dose-dependent effect"}, {"measurement": "Activity", "setting": "A549", "result": "Dose-dependent effect"}, {"measurement": "Activity", "setting": "PC-3", "result": "Dose-dependent effect"}]}
{"smiles": "CO[C@@]12[C@H](COC(N)=O)C3=C(C(=O)C(C)=C(N)C3=O)N1C[C@@H]1N[C@@H]12", "note": "[MITOMYCIN]", "values": [{"measurement": "Activity", "setting": "THP-1", "result": "Dose-dependent effect"}, {"measurement": "IC50", "setting": "THP-1", "result": 1.5, "unit": "µM"}, {"measurement": "Activity", "setting": "A549", "result": "Dose-dependent effect"}, {"measurement": "IC50", "setting": "A549", "result": 0.4, "unit": "µM"}, {"measurement": "Activity", "setting": "PC-3", "result": "Dose-dependent effect"}]}
{"smiles": "Clc1ccc2nc(NCCCBr)sc2c1", "values": [{"measurement": "Activity", "setting": "THP-1", "result": "Dose-dependent effect"}, {"measurement": "IC50", "setting": "THP-1", "result": 60, "unit": "µM"}, {"measurement": "IC50", "setting": "Caco-2", "result": 33, "unit": "µM"}, {"measurement": "Activity", "setting": "A549", "result": "Dose-dependent effect"}, {"measurement": "IC50", "setting": "A549", "result": "> 100", "unit": "µM"}, {"measurement": "Activity", "setting": "PC-3", "result": "Dose-dependent effect"}, {"measurement": "IC50", "setting": "PC-3", "result": 62.8, "unit": "µM"}]}
